Data on 49 molecules can be found in US10640495B2, “Heterocycle derivatives having TrkA inhibitory activity” (Shionogi & Co., Ltd., priority 2015, dated 2020).

Each structure is given as a SMILES string.

The target of one assay is human TrkA (Homo sapiens (Human), UniProt P04629). Put plainly: Human TrkA inhibition assay (Test Example 2). It is filed as biochemical. The following applies: Table 156, human TrkA inhibition; read-out: IC50. In a few lines: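 Mobility-shift readout of phosphorylated versus unphosphorylated fluorescent peptide gave conversion ratio, normalized to DMSO and no-enzyme wells; IC50 by logistic fit of 10- or 15-point 3-fold dilutions. Conditions: 1 nmol/L enzyme, 15 min compound preincubation, then 500 μmol/L ATP plus 1.5 μmol/L peptide, 120 min, 37 °C.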
human TrkA, sequence (P04629 440-796): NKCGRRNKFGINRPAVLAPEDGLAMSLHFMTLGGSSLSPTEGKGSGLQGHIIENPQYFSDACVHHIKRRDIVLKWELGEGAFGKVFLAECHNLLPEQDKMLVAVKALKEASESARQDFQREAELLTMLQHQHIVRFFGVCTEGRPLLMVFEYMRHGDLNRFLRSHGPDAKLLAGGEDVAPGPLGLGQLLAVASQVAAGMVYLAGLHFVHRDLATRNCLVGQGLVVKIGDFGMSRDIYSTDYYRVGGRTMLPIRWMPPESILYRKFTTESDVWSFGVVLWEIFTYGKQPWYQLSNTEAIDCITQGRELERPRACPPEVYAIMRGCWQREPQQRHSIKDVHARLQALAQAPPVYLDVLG
As usually defined, the IC50 is the concentration that inhibits the measured activity by half. As to `CCN1C[C@@H](NC(=O)Nc2c(C)c(-c3cnc4c(c3)oc(=O)n4C)nn2-c2ccccc2)[C@H](c2ccc(F)c(F)c2)O1` (racemic) [Compound I-539], the IC50 was below 0.1 µM.
`CCN1C[C@@H](NC(=O)Nc2c(C)c(-c3cnc(N4CCN(C)CC4)nc3)nn2-c2ccccc2)[C@H](c2ccc(F)c(F)c2)O1` (racemic) [Compound I-540]: the IC50 is below 0.1 µM.
For the molecule `CCOc1nn(-c2ccccc2)c(NC(=O)N[C@@H]2CN(CC)O[C@H]2c2ccc(F)cc2)c1C` (racemic) [Compound I-541], the IC50 was below 0.1 µM.
On the same count and under the same terms, the value for `CCOc1nn(-c2ccccc2)c(NC(=O)N[C@@H]2CN(CC)O[C@H]2c2ccc(F)c(F)c2)c1C` (racemic) [Compound I-542] was below 0.1 µM.
Same read-out and setting: the value for `CCN1C[C@@H](NC(=O)Nc2c(C)c(-c3ccn(C)c(=O)c3)nn2-c2ccccc2)[C@H](c2ccc(F)c(F)c2)O1` (racemic) [Compound I-543] was below 0.1 µM; that for `CCN1C[C@@H](NC(=O)Nc2c(C)c(-c3cnc(OC)c(C(=O)NC4CCOCC4)c3)nn2-c2ccccc2)[C@H](c2ccc(F)c(F)c2)O1` (racemic) [Compound I-545] was below 0.1 µM; that for `CNC(=O)c1cc(-c2nn(-c3ccccc3)c(NC(=O)N[C@@H]3CN(CCF)O[C@H]3c3ccc(F)c(F)c3)c2C)cnc1OC` (racemic) [Compound I-550] was below 0.1 µM.
Consider `CNC(=O)c1cc(-c2nn(-c3ccccc3)c(NC(=O)N[C@@H]3CN(CC(F)F)O[C@H]3c3ccc(F)c(F)c3)c2C)cnc1OC` (racemic) [Compound I-551], for which the concentration for half-maximal inhibition (IC50) was below 0.1 µM.
For `COCCN1C[C@@H](NC(=O)Nc2c(C)c(-c3ccc(OC)cc3)nn2-c2ccccc2)[C@H](c2ccnc(F)c2)O1` (racemic) [Compound I-554], the IC50 was below 0.1 µM.
The same measure, in the same setting: the value for `CCN1C[C@@H](NC(=O)Nc2c(C)c(OCC3CCNCC3)nn2-c2ccccc2)[C@H](c2ccc(F)c(F)c2)O1` (racemic) [Compound I-559] was below 0.1 µM; that for `Cc1c(OCC2CCNCC2)nn(-c2ccccc2)c1NC(=O)N[C@@H]1CN(CCF)O[C@H]1c1ccc(F)c(F)c1` (racemic) [Compound I-560] was below 0.1 µM; that for `Cc1c(OCC2CCNCC2)nn(-c2ccccc2)c1NC(=O)N[C@@H]1CN(CC(F)F)O[C@H]1c1ccc(F)c(F)c1` (racemic) [Compound I-561] was below 0.1 µM.
In the case of `CCN1C[C@@H](NC(=O)Nc2c(C)c(OCC3CCNCC3)nn2-c2ccccc2)[C@H](c2ccc(F)cc2)O1` (racemic) [Compound I-562], the IC50 was below 0.1 µM.
The same measure, in the same setting: the result for `CCN1C[C@@H](NC(=O)Nc2c(C)c(OCC3CCN(C(C)=O)CC3)nn2-c2ccccc2)[C@H](c2ccc(F)c(F)c2)O1` (racemic) [Compound I-563] reads below 0.1 µM.
In the case of `CC(=O)N1CCC(COc2nn(-c3ccccc3)c(NC(=O)N[C@@H]3CN(CCF)O[C@H]3c3ccc(F)c(F)c3)c2C)CC1` (racemic) [Compound I-564], the 50% inhibitory concentration (IC50) was below 0.1 µM.
On to `CC(=O)N1CCC(COc2nn(-c3ccccc3)c(NC(=O)N[C@@H]3CN(CC(F)F)O[C@H]3c3ccc(F)c(F)c3)c2C)CC1` (racemic) [Compound I-565], for which the IC50 is below 0.1 µM.
Same read-out and setting: the value for `CCN1C[C@@H](NC(=O)Nc2c(C)c(OCC3CCN(C(C)=O)CC3)nn2-c2ccccc2)[C@H](c2ccc(F)cc2)O1` (racemic) [Compound I-566] was below 0.1 µM; that for `Cc1c(OCC2CCN(C)CC2)nn(-c2ccccc2)c1NC(=O)N[C@@H]1CN(CCF)O[C@H]1c1ccc(F)c(F)c1` (racemic) [Compound I-567] was below 0.1 µM; that for `Cc1c(OCC2CCN(C)CC2)nn(-c2ccccc2)c1NC(=O)N[C@@H]1CN(CC(F)F)O[C@H]1c1ccc(F)c(F)c1` (racemic) [Compound I-568] was below 0.1 µM.
The same measure, in the same setting: the value for `CCN1C[C@@H](NC(=O)Nc2c(C)c(OCC3CCN(C)CC3)nn2-c2ccccc2)[C@H](c2ccc(F)cc2)O1` (racemic) [Compound I-569] was below 0.1 µM; that for `CCN1C[C@@H](NC(=O)Nc2c(C)c(-c3cnc(OC)c(C(=O)NC)c3)nn2-c2ccccc2)[C@H](c2ccc(F)cc2)O1` (racemic) [Compound I-570] was below 0.1 µM; that for `CNC(=O)c1cc(-c2nn(-c3ccccc3)c(NC(=O)N[C@@H]3CN(CC(F)(F)F)O[C@H]3c3ccc(F)c(F)c3)c2C)cnc1OC` (racemic) [Compound I-571] was below 0.1 µM.

Staying with this assay, now noted: Table 157, human TrkA inhibition; read-out: IC50.
Regarding `COCCN1CC(NC(=O)Nc2c(C)c(-c3cnc(N4CC5(CCO5)C4)nc3)nn2-c2ccccc2)C(c2ccnc(F)c2)O1` (racemic) [Compound I-581], the concentration for half-maximal inhibition (IC50) was below 0.1 µM.
With `COCCN1C[C@@H](NC(=O)Nc2c(C)c(-c3cnc(N4CC(N(C)C)C4)nc3)nn2-c2ccccc2)[C@H](c2ccnc(F)c2)O1` (racemic) [Compound I-582], the IC50 is below 0.1 µM.
On to `COCCN1C[C@@H](NC(=O)Nc2c(C)c(-c3cnc(N4CC(N5CCOCC5)C4)nc3)nn2-c2ccccc2)[C@H](c2ccnc(F)c2)O1` (racemic) [Compound I-583], for which the IC50 was below 0.1 µM.
The same measure, in the same setting: the value for `COCCN1C[C@@H](NC(=O)Nc2c(C)c(-c3cnc(N(C)CCOC)nc3)nn2-c2ccccc2)[C@H](c2ccnc(F)c2)O1` (racemic) [Compound I-588] was below 0.1 µM; that for `COCCN1C[C@@H](NC(=O)Nc2c(C)c(-c3cnc(N(C)CCCN(C)C)nc3)nn2-c2ccccc2)[C@H](c2ccnc(F)c2)O1` (racemic) [Compound I-589] was below 0.1 µM; that for `COCCN1C[C@@H](NC(=O)Nc2c(C)c(-c3cnc4oc(C)nc4c3)nn2-c2ccccc2)[C@H](c2ccnc(F)c2)O1` (racemic) [Compound I-596] was below 0.1 µM.
On the same count and under the same terms, the result for `COCCN1C[C@@H](NC(=O)Nc2c(C)c(-c3cnc4c(c3)OCO4)nn2-c2ccccc2)[C@H](c2ccnc(F)c2)O1` (racemic) [Compound I-606] reads below 0.1 µM.
On the same count and under the same terms, the value for `CCN1C[C@@H](NC(=O)Nc2c(C)c(OCC3CCN(C(=O)CO)CC3)nn2-c2ccccc2)[C@H](c2ccc(F)c(F)c2)O1` (racemic) [Compound I-607] was below 0.1 µM; that for `CCN1C[C@@H](NC(=O)Nc2c(C)c(OCC3CCN(C(=O)COC)CC3)nn2-c2ccccc2)[C@H](c2ccc(F)c(F)c2)O1` (racemic) [Compound I-608] was below 0.1 µM; that for `CCN1CCC(COc2nn(-c3ccccc3)c(NC(=O)N[C@@H]3CN(CC)O[C@H]3c3ccc(F)c(F)c3)c2C)CC1` (racemic) [Compound I-609] was below 0.1 µM.
For the molecule `CCN1C[C@@H](NC(=O)Nc2c(C)c(OCCCN(C)C)nn2-c2ccccc2)[C@H](c2ccc(F)c(F)c2)O1` (racemic) [Compound I-610], the IC50 was below 0.1 µM.
Consider `CCN1C[C@@H](NC(=O)Nc2c(C)c(-c3ccc4nc(C(N)=O)cn4c3)nn2-c2ccccc2)[C@H](c2ccc(F)c(F)c2)O1` (racemic) [Compound I-611], for which the half-inhibitory concentration (IC50) is below 0.1 µM.
Still for that read-out and setting: the value for `CCN1C[C@@H](NC(=O)Nc2c(C)c(-c3cnc(C(N)=O)c(F)c3)nn2-c2ccccc2)[C@H](c2ccc(F)c(F)c2)O1` (racemic) [Compound I-612] was below 0.1 µM; that for `CCN1C[C@@H](NC(=O)Nc2c(C)c(-c3cnc(C(=O)NC)c(F)c3)nn2-c2ccccc2)[C@H](c2ccc(F)c(F)c2)O1` (racemic) [Compound I-613] was below 0.1 µM; that for `COCCN1C[C@@H](NC(=O)Nc2c(C)c(-c3cnc4nc(C)oc4c3)nn2-c2ccccc2)[C@H](c2ccnc(F)c2)O1` (racemic) [Compound I-616] was below 0.1 µM.
Regarding `COc1ncc(-c2nn(-c3ccccc3)c(NC(=O)N[C@@H]3CN(CCC(F)(F)F)O[C@H]3c3ccc(F)c(F)c3)c2C)cn1` (racemic) [Compound I-621], the half-inhibitory concentration (IC50) is above 1 µM.
`Cc1c(-c2cnc3c(cnn3C)c2)nn(-c2ccccc2)c1NC(=O)N[C@@H]1CN(CCC(F)(F)F)O[C@H]1c1ccc(F)c(F)c1` (racemic) [Compound I-622]: the IC50 was above 1 µM.
Still for that read-out and setting: the result for `CNC(=O)c1cc(-c2nn(-c3ccccc3)c(NC(=O)N[C@@H]3CN(CCC(F)(F)F)O[C@H]3c3ccc(F)c(F)c3)c2C)cnc1OC` (racemic) [Compound I-623] reads 0.1 to 1 µM; that for `CCN1C[C@@H](NC(=O)Nc2c(C)c(-c3ccc4nccn4c3)nn2-c2ccccc2)[C@H](c2ccc(F)c(F)c2)O1` (racemic) [Compound I-624], below 0.1 µM; that for `CCN1C[C@@H](NC(=O)Nc2c(C)c(-c3ccn4ccnc4c3)nn2-c2ccccc2)[C@H](c2ccc(F)c(F)c2)O1` (racemic) [Compound I-625], below 0.1 µM.
Same read-out and setting: the result for `CCN1C[C@@H](NC(=O)Nc2c(C)c(-c3cnc4c(c3)OCCO4)nn2-c2ccccc2)[C@H](c2ccc(F)c(F)c2)O1` (racemic) [Compound I-626] reads below 0.1 µM; that for `CCN1C[C@@H](NC(=O)Nc2c(C)c(-c3cnc(N4CC(OC)C4)nc3)nn2-c2ccccc2)[C@H](c2ccc(F)c(F)c2)O1` (racemic) [Compound I-628], below 0.1 µM; that for `Cc1c(-c2cccnc2)nn(-c2ccccc2)c1NC(=O)N[C@@H]1CN(CC(F)F)O[C@H]1c1ccc(F)c(F)c1` (racemic) [Compound I-629], below 0.1 µM.
Still for that read-out and setting: the result for `Cc1c(-c2ccncc2)nn(-c2ccccc2)c1NC(=O)N[C@@H]1CN(CC(F)F)O[C@H]1c1ccc(F)c(F)c1` (racemic) [Compound I-630] reads below 0.1 µM.
In the case of `CCN1C[C@@H](NC(=O)Nc2c(C)c(OC3CCN(C)CC3)nn2-c2ccccc2)[C@H](c2ccc(F)c(F)c2)O1` (racemic) [Compound I-631], the concentration for half-maximal inhibition (IC50) was below 0.1 µM.

Staying with this assay, now noted: human TrkA 1 nmol/L, ATP 500 μmol/L, 120 min at 37° C.; read-out: IC50 values (TrkA phosphorylation inhibition).
Consider `COCCN1C[C@@H](NC(=O)Nc2c(C)c(-c3cnc(OCF)nc3)nn2-c2ccccc2)[C@H](c2ccnc(F)c2)O1` (racemic) [Compound I-620], for which the IC50 worked out at 0.0068 µM.
Still for that read-out and setting: the value for `CCN1C[C@@H](NC(=O)Nc2c(C)c(-c3ccc(OC)nc3)nn2-c2ccccc2)[C@H](c2ccc(F)c(F)c2)O1` (racemic) [Compound I-627] was 0.0048 µM.
